The subject of one assay is IL-10 promoter. Nature of the assay: ChIP of histone H3 phosphorylation at the IL-10 promoter in stimulated BMMφ. The class given is cell-based, mice. The protocol:
BMMφ were stimulated with medium (open bars), LPS (solid bars) or E-IgG+LPS (striped bars) for 15 minutes (A), or the indicated times (B) and ChIP assays were carried out as described in Materials and Methods. Immunoprecipitations utilized antibodies specific to phospho-H3 (left panel) or acetyl-H3 (right panel). A. conventional RT-PCR and B. real time PCR were carried out using IL-10 promoter or IL-12p40 promoter specific primers. For real time PCR, samples were normalized to input DNA controls.
Cells were pretreated with PD98059 (10 μM), SB203580 (1 μM) or medium for 30 min then stimulated with medium (open bar), IgG-OVA (dotted bar), LPS (solid bar), or both (striped bars) for 40 min. ChIP analysis was carried out using a phospho-H3 specific Ab. A. Conventional RT-PCR was carried out using IL-10 promoter or IL-12p40 promoter specific primers. B. Real time PCR analysis of samples obtained in A. Samples were normalized to input DNA controls.
FIG. 22 is a graph showing Inhibition of histone modifications by blocking ERK. BMMφ were pre-treated with PD98059 (15 μM) (solid bars) or drug vehicle (open bars) for 1 hour and then stimulated with IC plus LPS (10 ng/mL). Cross-linked chromatin fragments were immunoprecipitated with antibody to phosphorylated histone H3 at Ser 10 or antibody to Sp1. The DNA was purified and analyzed for the presence of IL-10 promoter sequences corresponding to nucleosome −2 by QRT-PCR. The data were plotted graphically as the percentage change relative to drug vehicle (IC/LPS) at 30 min post-stimulation for histone H3 phosphorylation, and at 45 min post-stimulation for Sp1 recruitment. One representative from two independent experiments is presented.
Chromatin immunoprecipitation (ChIP). ChIPs were carried out using the ChIP Assay kit following the manufacturer's protocol (Upstate USA, Inc., Lake Placid, N.Y.). Briefly, 1×10^6 BMMφ were plated overnight in 6-well plates. Cells were stimulated as described in Figure Legends then fixed for 10 min at 37° C. in paraformaldehyde (1% final concentration). […]

The test system of assay [1] is bone marrow derived macrophages (BMMφ). Nature of the assay: Cytokine ELISA on supernatants of stimulated bone marrow derived macrophages (LPS ± E-IgG). (In an ELISA, binding on a coated surface is turned into a signal by an enzyme label.)

With `COc1cccc(-c2cc(=O)c3ccccc3o2)c1N` [PD98059], the “histone H3 Ser 10 phosphorylation at IL-10 promoter nucleosome −2 (ChIP, QRT-PCR)” value with IL-10 promoter (BMMφ pre-treated with PD98059 15 μM for 1 hour, IC plus LPS 10 ng/mL, 30 min post-stimulation, relative to drug vehicle) was “substantial loss”. Moreover, the “histone H3 phosphorylation at the IL-10 promoter induced by immune complex (ChIP)” value in the assay with IL-10 promoter (BMMφ pretreated 30 min with PD98059 10 μM or SB203580 1 μM, then IgG-OVA + LPS for 40 min) is recorded as “completely abrogated”. Besides, the “IL-10 secretion (ELISA)” value in assay [1] (BMMφ pretreated 30 min with PD98059 10 μM, SB203580 1 μM or JNK inhibitory peptide 1 μM, then LPS 10 ng/ml ± E-IgG, supernatants after 20 h) is recorded as “substantial inhibition”. Besides, the “IL-12 (p40) production (ELISA)” value in assay [1] (BMMφ pretreated 30 min with inhibitor, then LPS 10 ng/ml ± E-IgG, 20 h) was “actually increased”. For the same compound, the “superinduction (augmentation) of IL-10 production caused by immune complexes” value in assay [1] (BMMφ, LPS 10 ng/ml + E-IgG versus LPS alone, 20 h, inhibitor pretreatment or 100 nM siRNA) is “appeared to prevent”.
